PubChem BioAssay (NCI)
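GI50: concentration for 50% inhibition of growth. TGI denotes the concentration required for complete inhibition of growth.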

Assays:
Test in all cases: NCI tumour cell line growth inhibition, 384-well format
HOP-92 NSCLC = tested on: HOP-92 NSCLC
SK-MEL-28 melanoma = tested on: SK-MEL-28 melanoma
LOX IMVI melanoma = tested on: LOX IMVI melanoma
SF-268 CNS = tested on: SF-268 CNS
MDA-MB-231 breast = tested on: MDA-MB-231 breast
KM12 colon = tested on: KM12 colon
K-562 leukemia = tested on: K-562 leukemia
MDA-MB-435 melanoma = tested on: MDA-MB-435 melanoma
EKVX NSCLC = tested on: EKVX NSCLC
SK-OV-3 ovarian = tested on: SK-OV-3 ovarian
OVCAR-8 ovarian = tested on: OVCAR-8 ovarian
HOP-62 NSCLC = tested on: HOP-62 NSCLC
T-47D breast = tested on: T-47D breast
SR leukemia = tested on: SR leukemia
CCRF-CEM leukemia = tested on: CCRF-CEM leukemia
BT-549 breast = tested on: BT-549 breast
HL-60(TB) leukemia = tested on: HL-60(TB) leukemia
CAKI-1 renal = tested on: CAKI-1 renal
OVCAR-3 ovarian = tested on: OVCAR-3 ovarian
MCF7 breast = tested on: MCF7 breast
UACC-62 melanoma = tested on: UACC-62 melanoma
NCI-H322M lung = tested on: NCI-H322M lung
SF-539 CNS = tested on: SF-539 CNS
SN12C renal = tested on: SN12C renal
OVCAR-5 ovarian = tested on: OVCAR-5 ovarian
DU-145 prostate = tested on: DU-145 prostate
MALME-3M melanoma = tested on: MALME-3M melanoma
SNB-75 CNS = tested on: SNB-75 CNS
SK-MEL-2 melanoma = tested on: SK-MEL-2 melanoma
TK-10 renal = tested on: TK-10 renal
RXF 393 renal = tested on: RXF 393 renal
UO-31 renal = tested on: UO-31 renal
NCI-H23 lung = tested on: NCI-H23 lung
SNB-19 CNS = tested on: SNB-19 CNS
PC-3 prostate = tested on: PC-3 prostate
NCI-H522 lung = tested on: NCI-H522 lung
OVCAR-4 ovarian = tested on: OVCAR-4 ovarian
HT29 colon = tested on: HT29 colon
NCI/ADR-RES ovarian = tested on: NCI/ADR-RES ovarian
UACC-257 melanoma = tested on: UACC-257 melanoma
NCI-H460 NSCLC = tested on: NCI-H460 NSCLC
HCC-2998 colon = tested on: HCC-2998 colon
MOLT-4 leukemia = tested on: MOLT-4 leukemia
HCT-116 colon = tested on: HCT-116 colon
A549 NSCLC = tested on: A549 NSCLC
HCT-15 colon = tested on: HCT-15 colon
SF-295 CNS = tested on: SF-295 CNS

SMILES: O=C(CCCCCCC(=O)N/N=C/c1ccc(N(c2ccccc2)c2ccccc2)cc1)NO
- GI50 (HOP-92 NSCLC): 1050 nM
- TGI (HOP-92 NSCLC): 2620 nM
- GI50 (SK-MEL-28 melanoma): 2890 nM
- TGI (SK-MEL-28 melanoma): 8290 nM
- GI50 (LOX IMVI melanoma): 190 nM
- TGI (LOX IMVI melanoma): 369 nM
- GI50 (SF-268 CNS): 1990 nM
- TGI (SF-268 CNS): 3940 nM
- GI50 (MDA-MB-231 breast): 1900 nM
- TGI (MDA-MB-231 breast): 4600 nM
- GI50 (KM12 colon): 2630 nM
- TGI (KM12 colon): 9170 nM
- GI50 (K-562 leukemia): 1420 nM
- TGI (K-562 leukemia): 2750 nM
- GI50 (MDA-MB-435 melanoma): 3910 nM
- TGI (MDA-MB-435 melanoma): 11900 nM
- GI50 (EKVX NSCLC): 2620 nM
- TGI (EKVX NSCLC): 6520 nM
- GI50 (SK-OV-3 ovarian): 1370 nM
- TGI (SK-OV-3 ovarian): 2830 nM
- GI50 (OVCAR-8 ovarian): 1500 nM
- TGI (OVCAR-8 ovarian): 3880 nM
- GI50 (HOP-62 NSCLC): 2040 nM
- TGI (HOP-62 NSCLC): 5860 nM
- GI50 (T-47D breast): 562 nM
- TGI (T-47D breast): 1600 nM
- GI50 (SR leukemia): 144 nM
- TGI (SR leukemia): 321 nM
- GI50 (CCRF-CEM leukemia): 979 nM
- TGI (CCRF-CEM leukemia): 2260 nM
- GI50 (BT-549 breast): 2420 nM
- TGI (BT-549 breast): 4880 nM
- GI50 (HL-60(TB) leukemia): 1280 nM
- TGI (HL-60(TB) leukemia): 2560 nM
- GI50 (CAKI-1 renal): 256 nM
- TGI (CAKI-1 renal): 1140 nM
- GI50 (OVCAR-3 ovarian): 673 nM
- TGI (OVCAR-3 ovarian): 1900 nM
- GI50 (MCF7 breast): 297 nM
- TGI (MCF7 breast): 1720 nM
- GI50 (UACC-62 melanoma): 397 nM
- TGI (UACC-62 melanoma): 1440 nM
- GI50 (NCI-H322M lung): 3110 nM
- TGI (NCI-H322M lung): 9540 nM
- GI50 (SF-539 CNS): 2150 nM
- TGI (SF-539 CNS): 4880 nM
- GI50 (SN12C renal): 1830 nM
- TGI (SN12C renal): 3620 nM
- GI50 (OVCAR-5 ovarian): 665 nM
- TGI (OVCAR-5 ovarian): 2090 nM
- GI50 (DU-145 prostate): 1740 nM
- TGI (DU-145 prostate): 3370 nM
- GI50 (MALME-3M melanoma): 2070 nM
- TGI (MALME-3M melanoma): 4620 nM
- GI50 (SNB-75 CNS): 2820 nM
- TGI (SNB-75 CNS): 7800 nM
- GI50 (SK-MEL-2 melanoma): 1450 nM
- TGI (SK-MEL-2 melanoma): 2830 nM
- GI50 (TK-10 renal): 255 nM
- TGI (TK-10 renal): 720 nM
- GI50 (RXF 393 renal): 790 nM
- TGI (RXF 393 renal): 2100 nM
- GI50 (UO-31 renal): 1730 nM
- TGI (UO-31 renal): 8200 nM
- GI50 (NCI-H23 lung): 1560 nM
- TGI (NCI-H23 lung): 3170 nM
- GI50 (SNB-19 CNS): 2780 nM
- TGI (SNB-19 CNS): 7200 nM
- GI50 (PC-3 prostate): 1770 nM
- TGI (PC-3 prostate): 4330 nM
- GI50 (NCI-H522 lung): 1440 nM
- TGI (NCI-H522 lung): 4340 nM
- GI50 (OVCAR-4 ovarian): 686 nM
- TGI (OVCAR-4 ovarian): 2000 nM
- GI50 (HT29 colon): 1800 nM
- TGI (HT29 colon): 3450 nM
- GI50 (NCI/ADR-RES ovarian): 4360 nM
- TGI (NCI/ADR-RES ovarian): 15900 nM
- GI50 (UACC-257 melanoma): 589 nM
- TGI (UACC-257 melanoma): 1310 nM
- GI50 (NCI-H460 NSCLC): 1160 nM
- TGI (NCI-H460 NSCLC): 2450 nM
- GI50 (HCC-2998 colon): 1840 nM
- TGI (HCC-2998 colon): 3870 nM
- GI50 (MOLT-4 leukemia): 471 nM
- TGI (MOLT-4 leukemia): 1510 nM
- GI50 (HCT-116 colon): 702 nM
- TGI (HCT-116 colon): 1890 nM
- GI50 (A549 NSCLC): 1840 nM
- TGI (A549 NSCLC): 3830 nM
- GI50 (HCT-15 colon): 2800 nM
- TGI (HCT-15 colon): 7260 nM
- GI50 (SF-295 CNS): 1750 nM
- TGI (SF-295 CNS): 3370 nM
